Source: article PMC7266096 (ACS infectious diseases, 2020)
≈ marks a conversion by molar mass, not a printed value. Where two headings read alike, the source gives them in different places. Marks after values point to notes of the source that are not given here.

How the values were obtained:
NDM-1 [1] = biological target: T1, NDM-1 (Klebsiella pneumoniae, UniProt C7C422); assay: biochemical; type: biochemical; conditions: for inhibition of nitrocefin turnover: at the concentrations tested, up to 320 μM
Target sequence in this assay (C7C422 29-270, looked up): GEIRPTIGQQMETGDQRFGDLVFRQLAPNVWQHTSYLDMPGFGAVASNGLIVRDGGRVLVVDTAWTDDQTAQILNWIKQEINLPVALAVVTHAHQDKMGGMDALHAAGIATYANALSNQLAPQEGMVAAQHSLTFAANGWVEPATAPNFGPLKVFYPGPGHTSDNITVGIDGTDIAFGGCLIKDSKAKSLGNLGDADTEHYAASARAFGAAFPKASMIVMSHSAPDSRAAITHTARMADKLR

NDM-1 [2] = biological target: T1, NDM-1; assay: Turnover of PcephPT by purified NDM-1; type: biochemical; conditions: 5 nM NDM-1, concentrations up to 160 μM, HEPES pH 7.2, 37 °C
Target sequence in this assay (C7C422 29-270, looked up): as above

NDM-1 [3] = biological target: T1, NDM-1; type: cell-based, E. coli; conditions: for reduction of nitrocefin turnover: 100 μM, treated for 60 minutes at room temperature
Target sequence in this assay (C7C422 37-270 limits assumed): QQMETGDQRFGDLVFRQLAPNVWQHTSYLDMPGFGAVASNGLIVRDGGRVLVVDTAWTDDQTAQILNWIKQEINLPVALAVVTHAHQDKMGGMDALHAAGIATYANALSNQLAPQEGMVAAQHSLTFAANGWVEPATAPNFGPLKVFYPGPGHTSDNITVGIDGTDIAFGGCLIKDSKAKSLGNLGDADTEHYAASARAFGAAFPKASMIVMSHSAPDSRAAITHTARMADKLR

[4] = test system: E. coli MG1655 expressing NDM-1; assay: microbe, parasite or virus in culture; type: cell-based; conditions: for MIC: Escherichia coli; for MG1655 MIC: compound alone, 20 h, Mueller-Hinton broth
[5] = test system: E. coli UTI89 expressing NDM-1; assay: microbe, parasite or virus in culture; type: cell-based; conditions: for MIC: Escherichia coli; for UTI89 MIC: compound alone, Mueller-Hinton broth
[6] = test system: E. coli MG1655 expressing NDM-1; type: cell-based
[7] = test system: E. coli MG1655 expressing CTX-M-1; type: cell-based
NDM-1 [8] = biological target: T1, NDM-1; type: binding; conditions: 10 μM NDM-1, after dialysis
Target sequence in this assay (C7C422 29-270, looked up): as the sequence (C7C422 29-270, looked up) above

CoCo-NDM-1 = CoCo-NDM-1 (Klebsiella pneumoniae, UniProt C7C422); type: binding; conditions: 300 μM CoCo-NDM-1, one or two equivalents of compound
NDM-1 [9] = biological target: T1, NDM-1; type: biochemical; conditions: 0–60 μM inhibitor; for change of Vmax with increasing inhibitor concentration: 10 nM NDM-1, Figure S5; for inhibition mode: 10 nM NDM-1, nitrocefin 63–500 μM
Target sequence in this assay (C7C422 29-270, looked up): as above

susceptible strains = conditions: no reference given; cited from earlier work
[10] = MG1655, 20 h, read-out: MG1655 MIC
[11] = OD600 every 30 minutes over 20 h

Chain of CoCo-NDM-1 (C7C422 29-270, looked up): as above

Question: For CC(=O)OCC1=C(C(=O)O)N2C(=O)[C@@H](NC(=O)Cc3cccs3)[C@H]2SC1 [Cephalothin], which IC50 (NDM-1 [1]) is on record?
Answer: 9.1 µM

Question: For c1ccc(CN(CCN(Cc2ccccn2)Cc2ccccn2)Cc2ccccn2)nc1 [TPEN, N,N,N′,N′-tetrakis(2-pyridinylmethyl)-1,2-ethanediamine], which IC50 (NDM-1 [1]) is on record?
Answer: 0.088 µM

Question: For CC1=C(C(=O)O)N2C(=O)[C@@H](NC(=O)[C@H](N)c3ccccc3)[C@H]2SC1 [Cephalexin], which IC50 (NDM-1 [1]) is on record?
Answer: 36 µM

Question: What does the source list for O=C(Cc1ccccc1)N[C@@H]1C(=O)N2C(C(=O)O)=C(CSc3cccc[n+]3[O-])CS[C@H]12 [PcephPT, 2-((((6R,7R)-2-carboxy-8-oxo-7-(2-phenylacetamido)-5-thia-1-azabicyclo[4.2.0]oct-2-en-3-yl)methyl)thio)pyridine 1-oxide]?
Answer: effect of increasing incubation time with NDM-1 on IC50 (NDM-1 [1]; Figure S2): did not affect its IC50; turnover of compound by NDM-1 (NDM-1 [2]): turned over by 5 nM NDM-1 efficiently; reduction of nitrocefin turnover (NDM-1 [3]): more than 75%; inhibition of nitrocefin turnover (NDM-1 [3]; cells exposed for only 30 minutes, compared with 60 minutes): less inhibited; MIC [4, 10]: > 160 µM; MG1655 MIC [4]: >160 ^* μM; MIC ([5]; 20 h, read-out: UTI89 MIC): > 160 µM; UTI89 MIC ([5]; 20 h): >160 ^* μM; effect of addition of copper on growth pattern ([6]; Figure S3): no significant difference; time of onset of growth inhibition ([6]; at concentrations of 40 μM and higher): between five and eight hours; concentration giving delayed onset of growth inhibition ([6]; growth initially in all conditions): ≥ 40 µM; growth pattern ([7]; varying concentrations, compared with PT): identical to that caused by PT; zinc removed from NDM-1 (NDM-1 [8]; 40 μM (four equivalents)): did not lead to loss of zinc; zinc removed from NDM-1 (NDM-1 [8]; 160 μM (sixteen equivalents)): did not lead to loss of zinc; change of CoCo-NDM-1 UV-Vis spectrum (CoCo-NDM-1): increase in absorbance in the 500–650 nm region; change of Vmax with increasing inhibitor concentration (NDM-1 [9]): clear decrease in Vmax; inhibition mode (NDM-1 [9]): not competitive

Question: With O=C(O)c1cccc(C(=O)O)n1 [DPA, dipicolinic acid] as the molecule, how does the IC50 (NDM-1 [1]) read?
Answer: 1.8 µM

Question: Which results are given for C[C@@H](O)[C@H]1C(=O)N2C(C(=O)O)=C(SCCN=CN)C[C@H]12 [Imipenem]?
Answer: IC50 (NDM-1 [1]): > 100 µM; inhibition of nitrocefin turnover (NDM-1 [1]): did not inhibit nitrocefin turnover

Question: With [O-][n+]1ccccc1S [PT, pyrithione] as the molecule, how does the IC50 (NDM-1 [1]) read?
Answer: 17 µM

Question: What about the “reduction of nitrocefin turnover” value (NDM-1 [3]) of the same molecule?
Answer: more than 75%

Question: What about the MIC [4, 10] of the same molecule?
Answer: 20 µM (≈ 2.54 µg/mL)

Question: What about the MIC ([5]; 20 h, read-out: UTI89 MIC) of the same molecule?
Answer: 40 µM (≈ 5.09 µg/mL)

Question: And the “concentration that fully inhibits growth” value [6, 11]?
Answer: ≥ 20 µM

Question: And the growth pattern ([6]; at 10 μM)?
Answer: delayed growth

Question: And the “concentration that fully inhibits growth” value [7, 11]?
Answer: ≥ 20 µM

Question: And the growth pattern ([7]; at 10 μM)?
Answer: delayed growth

Question: What about the “zinc removed from NDM-1” value (NDM-1 [8]; 40 μM (four equivalents)) of the same molecule?
Answer: did not lead to loss of zinc

Question: And the “zinc removed from NDM-1” value (NDM-1 [8]; 160 μM (sixteen equivalents))?
Answer: did not lead to loss of zinc

Question: And the “change of CoCo-NDM-1 UV-Vis spectrum” value (CoCo-NDM-1)?
Answer: increase in absorbance in the 500–650 nm region

Question: And the “change of Vmax with increasing inhibitor concentration” value (NDM-1 [9])?
Answer: clear decrease in Vmax

Question: What about the inhibition mode (NDM-1 [9]) of the same molecule?
Answer: not competitive

Question: Which IC50 (NDM-1 [1]) does the source give for C[C@@H](O)[C@H]1C(=O)N2C(C(=O)O)=C(S[C@@H]3CN[C@H](C(=O)N(C)C)C3)[C@H](C)[C@H]12 [Meropenem] here?
Answer: > 100 µM

Question: What about the “inhibition of nitrocefin turnover” value (NDM-1 [1]) of the same molecule?
Answer: did not inhibit nitrocefin turnover

Question: What about the MIC [4, 10] of the same molecule?
Answer: > 160 µM

Question: And the MIC ([4]; MG1655, read-out: MG1655 MIC of meropenem)?
Answer: 10 µM

Question: What about the “MG1655 MIC” value [4] of the same molecule?
Answer: >160 µM

Question: And the “MG1655 MIC of meropenem” value ([4]; with fixed 10 μM PT)?
Answer: not restored

Question: And the “MG1655 MIC of meropenem” value ([4]; with fixed 10 μM PcephPT)?
Answer: not restored

Question: What about the MIC ([5]; 20 h, read-out: UTI89 MIC) of the same molecule?
Answer: > 160 µM

Question: And the MIC ([5]; read-out: UTI89 MIC of meropenem)?
Answer: 10 µM

Question: What about the “UTI89 MIC” value ([5]; 20 h) of the same molecule?
Answer: >160 µM

Question: And the “UTI89 MIC of meropenem” value ([5]; with fixed 10 μM PT)?
Answer: not restored

Question: What about the “UTI89 MIC of meropenem” value ([5]; with fixed 10 μM PcephPT) of the same molecule?
Answer: not restored

Question: And the MIC (susceptible strains)?
Answer: lower than 10 μM

Question: Which IC50 (NDM-1 [1]) does the source give for CO/N=C(\C(=O)N[C@@H]1C(=O)N2C(C(=O)O)=C(CSc3nc(=O)c(=O)[nH]n3C)CS[C@H]12)c1csc(N)n1 [Ceftriaxone] here?
Answer: 16 µM
